Measured values reported in paper PMC3544846, “Triphenylmethane Derivatives Have High In Vitro and In Vivo Activity against the Main Causative Agents of Cutaneous Leishmaniasis” (PLoS ONE, 2013).
pIC50: −log10 of the molar value. “Also recorded” adds a separate entry of the source.

Legend:
[1] = system: L. (V.) braziliensis intracellular amastigotes; test: Intracellular amastigote assay, L. (V.) braziliensis in BALB/c peritoneal macrophages; format: cell-based, Leishmania (Viannia) braziliensis; details: Leishmania braziliensis, in Mus musculus, 72 h
Method: (§1) L. (L.) amazonensis and L. (V.) braziliensis promastigotes with 7–8 days and 5–6 days of growth, respectively, were harvested from cultures and added to a fresh Schneider's medium supplemented with 5% FCS, pH 6.0, and incubated at 32°C for 7 days for L. (L.) amazonensis and 4–5 days for L. (V.) braziliensis until a complete transformation to amastigote-like.
(§2) Peritoneal macrophages from BALB/c mice were harvested by washing with ice-cold RPMI 1640 medium, 4 days after induction with a 3% thioglycollate solution. Macrophages were diluted in RPMI 1640 medium (Sigma, Poole, United Kingdom) plus 10% FCS and plated in 24 well plates with a circular cover glass at a plating density of 2×10^5 macrophages/well. Macrophages were allowed to adhere for 2 h at 37°C and 5% CO2, when the medium was replaced by a fresh one and incubated overnight.
Macrophages were infected with amastigote-like parasites from L. (L.) amazonensis or L. (V.) braziliensis. The parasites were counted in a Neubauer's chamber and adjusted to a macrophage-amastigote ratio of 1∶8. Infected cultures were maintained at 37°C and 5% CO2. […] Under the immersion microscope, infection indexes (number of amastigotes/100× percentage of infected macrophages) were determined by counting the numbers of intracellular amastigotes in 100 macrophages. […]

[2] = system: L. (L.) amazonensis intracellular amastigotes; test: Intracellular amastigote assay, L. (L.) amazonensis in BALB/c peritoneal macrophages; format: cell-based; details: Leishmania amazonensis, in Mus musculus, 72 h; for pIC50: Macrophage, intracellular amastigotes in macrophages
Method: as §1, §2
Macrophages were infected with amastigote-like parasites from L. (L.) amazonensis or L. (V.) braziliensis. The parasites were counted in a Neubauer's chamber and adjusted to a macrophage-amastigote ratio of 1∶8. Infected cultures were maintained at 37°C and 5% CO2. After 4 h, extracellular parasites were removed by washing, and a fresh medium containing either TPM compounds, no drug, or the reference drug. AmB (Fungizone®-Bristol- Meyers Squibb Pharmaceutics Ltda, Bedford, USA) was the chosen reference drug and was used at 0.2 µg/mL. After 72 h, the cover glass was removed from the well, washed in RPMI 1640 medium, set in microscope blades, fixed with methanol, and stained with Giemsa for evaluation. Under the immersion microscope, infection indexes (number of amastigotes/100× percentage of infected macrophages) were determined by counting the numbers of intracellular amastigotes in 100 macrophages. […] Each point was tested in triplicate and three independent experiments were then performed. Results are presented as mean and 95% CI [25].

[3] = system: L. (L.) major promastigotes; test: Promastigotes assay, L. (L.) major; format: cell-based; details: Leishmania major, 48 h incubation, mean of triplicates
Method: (§3) Promastigotes of L. (L.) amazonensis (IFLA/BR/1967/PH-8), L. (V.) braziliensis (MHOM/BR/75/M2903), and L. (L.) major (MHOM/IL/80/Friedlin) were maintained at 23°C in Schneider's Drosophila medium (Merck, Germany) supplemented with 20% heat-inactivated fetal calf serum (FCS) (Gibco, Eggenstein, Germany), pH 7.2. The same strain of L. (L.) amazonensis was used for both in vitro and in vivo experiments.
(§4) Promastigotes of L. (L.) amazonensis, L. (V.) braziliensis or L. (L.) major with 3 or 4 days of growth were plated in 24 well plates at a plating density of 1×10^6 parasites/mL in Schneider's medium supplemented with 20% FCS, pH 7.2. Drugs were diluted at the same medium and added to a parasite suspension in different concentrations, in triplicate. After 48 h of incubation, the parasites were counted and compared to the controls containing parasites in the absence of drugs. The drug concentration corresponding to 50% of the parasite growth inhibition was expressed as IC50. Three independent experiments were performed to confirm the results. Data are presented as mean and 95% CI.

[4] = system: L. (L.) amazonensis promastigotes; test: Promastigotes assay, L. (L.) amazonensis; format: cell-based; details: Leishmania amazonensis, 48 h incubation, mean of triplicates
Method: as §3, §4

[5] = system: L (L.) amazonensis-infected BALB/c mice; test: In vivo topical gel treatment, parasite quantification at the site of infection by limiting dilution; parameters: species or system Leishmania (Leishmania) amazonensis in BALB/c mice; details: twice a day, 20 days; for decrease of parasite burdens versus control / parasite burdens at site of infection (number of parasites): 1% gel; for parasite burdens at site of infection (number of parasites): 3 days after treatment, control group 1×10^7 (Figure 3A); for number of parasites within the lesion: control group 2.2×10^7 (Figure 3B)
Method: The formulation of the GV and TPM 6 gel was prepared by mixing equal amounts of a 2% hydroxyethylcellulose gel (HEC; Natrosol 250 HR, Aqualon) and a 2% GV or TPM 6 hydroethanolic solution (mixture ethanol/water 1/5), until a homogeneous preparation had been attained. Therefore, GV and TPM 6 concentration in these formulations was 1%. The gel lower concentrations for dose-response experiments was obtained by diluting the 1% GV gel with 1% HEC gel.
BALB/c mice (females, 5–6 weeks old) were inoculated with 1×10^7 stationary growth phase promastigotes of L (L.) amazonensis through subcutaneous injections at the base of the tail, after trichotomy.
To evaluate the in vivo efficacy of GV and TPM 6, after development of ulcerated lesions (average diameter of 7 to 9 mm), BALB/c mice were divided into three groups. For treatment with TPM 6 and GV, lesions were covered with 50 µl of a gel formulation containing either 1% GV or 1% TPM 6, twice a day, for 20 days, using an Eppendorf pippetor. Control group: animals from control group were treated with the gel formulation without GV or TPM 6 (placebo). The treatment efficacy was evaluated through of the parasite quantification at the site of infection (see below).
Afterwards, a dose-effect study of GV was performed. BALB/c mice, presenting ulcerated lesions (average diameter of 7 to 9 mm), were divided into four groups, according to lesion size, to assure similar average lesion size among treated groups. The GV gel formulation was applied topically at 0.1, 0.5 or 1.0% twice a day, for 20 days. Control group: animals from control group were treated with the gel formulation without GV (placebo). The treatment efficacy was evaluated through of the parasite quantification at the site of infection (see below).
Three days after the interruption of treatment, the number of viable parasites at the site of infection was quantified by a limiting-dilution assay. Skin fragments from ulcerated lesions, were homogenized with a tissue grinder in Schneider's modified medium supplemented with 10% bovine fetal serum and 100 U/mL penicilin and 100 µg/mL streptomycin. Next, the tissue was centrifuged at 50 g for two minutes for sedimentation (Hitachi, Himac). The supernatant was separated and centrifuged again at 1700 g for 15 minutes (Express, Jouan). The pellet formed was resuspended in 1 mL of Schneider's modified medium supplemented with 10% FCS and 1% of a 100 U/mL penicillin and 100 µg/mL streptomycin solution. The homogenate was submitted to serial dilutions in duplicates in sterile 96 well culture plates and incubated at 23°C. Each well was examined for the presence of parasites, and the number of parasites was quantified by the highest dilution at which parasites could grow over a 7-day period. The lowest dilution that parasites were detected was 10^−1, which was considered the limit of quantification.

[6] = Cytotoxicity MTT assay on macrophages; format: cell-based; details: mouse, BALB/c peritoneal macrophages, 68 h + 4 h
Method: To evaluate the toxicity of selected compounds, an in vitro cytotoxicity assay on macrophages from BABL/c mice was performed through 3-(4,5-dimethyithiazol-2-yl)-2,5- diphenyltetrazolium bromide (MTT) (Sigma, Poole, United Kingdom) assay. Briefly, peritoneal macrophages from BALB/c mice were harvested, as described previously and plated in 96-well-flat-bottom microplates at a plating density of 1×10^5 macrophages/well. Macrophages were allowed to adhere for 2 h at 37°C and 5% CO2, at which time the medium was replaced by a fresh one and incubated over night. Then, the cells were exposed to ten points of serial dilution of TPM 1, 2, 6, 9 or GV ([…]), which were used to obtain a curve to determine the IC50. After 68 h of incubation, 10 µL of MTT (10 mg/mL) was added to each well and the plates were further incubated for 4 h. The enzymatic reaction was then stopped by addition of 100 µL of 50% isopropanol–10% sodium dodecyl sulfate solution. The optical density at 570 nm was quantified using an ELISA plate reader (BioSource, Inc., EUA). Three independent experiments, in triplicate, were performed to determine the cytotoxicity and data were expressed as mean and 95% CI. An experiment was also done to control the possibility of dye color interference on MTT assay. […] The optical density at 570 nm was measured using an ELISA plate reader (BioSource, Inc., EUA).

[7] = system: L. (V.) braziliensis promastigotes; test: Promastigotes assay, L. (V.) braziliensis; format: cell-based, Leishmania (Viannia) braziliensis; details: Leishmania braziliensis, 48 h incubation, mean of triplicates
Method: as §3, §4

[8] = system: BALB/c mice infected with L. (L.) amazonensis; details: intramuscular administration, doses equivalent to human chemotherapy; cited from earlier work
[9] = system: hamsters infected L. (V.) braziliensis; parameters: method as in PMID 15652330; details: intramuscular administration, doses equivalent to human chemotherapy; cited from earlier work
[10] = Peritoneal macrophage, control drug at 0.2 µg/ml, intracellular amastigotes, read-out: mean value of parasite growth inhibition

## C[C@@H]1[C@H](O)[C@@H](C)/C=C/C=C/C=C/C=C/C=C/C=C/C=C/[C@H](O[C@@H]2O[C@H](C)[C@@H](O)[C@H](N)[C@@H]2O)C[C@@H]2O[C@](O)(C[C@@H](O)C[C@@H](O)[C@H](O)CC[C@@H](O)C[C@@H](O)CC(=O)O[C@H]1C)C[C@H](O)[C@H]2C(=O)O [AmB, amphotericin B]
[1]; [10]
  inhibition at 0.2 µg/mL: 98%
[2]; [10]
  inhibition at 0.2 µg/mL: 99.5%

## CN(C)c1ccc(C(=C2C=CC(=[N+](C)C)C=C2)c2ccc(N(C)C)cc2)cc1 [GV, gentian violet]
[3]
  IC50: 0.034 µM
[4]
  IC50: 0.025 µM
[2]
  pIC50: 6.77
[5]
  decrease of parasite burdens versus control: complete elimination of parasites
  parasite burdens at site of infection (number of parasites): no parasites were found
[5]; GV gel 0.1%
  number of parasites within the lesion: 2.2×10^6
[5]; GV gel 0.5%
  number of parasites within the lesion: 2.62×10^5
[5]; GV gel 1%
  number of parasites within the lesion: parasites were not detected; also recorded: complete elimination of parasite burden
[6]
  IC50 at 68 h: 4030 nM

## CCN(CC)c1ccc(C(=C2C=C(Cl)C=CC2=[Cl+])c2ccc(N(CC)CC)cc2)cc1 [TPM 3]
[4]
  IC50: > 1 µM

## CCN(CC)c1ccc(C(=C2C=CC(C)C=C2)c2ccc(N(CC)CC)cc2)cc1 (stereo not drawn) [TPM 6]
[3]
  IC50: 0.045 µM
[1]; Macrophage, intracellular amastigotes in macrophages
  pIC50: 7.00
[4]
  IC50: 0.031 µM
[7]
  IC50: 0.063 µM
[2]
  pIC50: 7.00
[5]
  decrease of parasite burdens versus control: three orders of magnitude
  parasite burdens at site of infection (number of parasites): 1×10^4
[6]
  IC50 at 68 h: 4160 nM

## CN(C)c1ccc(C(=C2C=CC(c3cnc(-c4ccc(-c5ncc(-c6ccccc6)o5)cc4)o3)C=C2)c2ccc(N(C)C)cc2)cc1 (stereo not drawn) [TPM 7]
[4]
  IC50: > 5 µM

## CCN(CC)c1ccc(C(=C2C=C(C(c3ccc(Cl)cc3)C(Cl)(Cl)Cl)C=CC2=[Cl+])c2ccc(N(CC)CC)cc2)cc1 (stereo not drawn) [TPM 10]
[4]
  IC50: > 4 µM

## meglumine antimoniate [Glucantime]
[8]
  reduction in lesions size: did not lead to significant reductions in lesions size
[9]
  reduction in lesions size: did not lead to significant reductions in lesions size
